Reference: US11254700B2, “GSK-3β inhibitors and use thereof in methods of treatment” (UNIVERSITY OF HAWAII, priority 2017, dated 2022)

System: APP/PS1 transgenic mice
Assay: Morris water maze test
Type: in vivo, mouse
Experimental: The backgrounds of all mice (APP/PS1 dual transgenic mice and wild-type mice with littermates) were C57/B6. Transgenic mice were randomly divided into three groups (n=20 for each group), and wild-type mice were used as controls (n=20). […] Throughout the study-period, animals were housed in a controlled environment (temperature, 22° C.; humidity, 50-60%, 12-hour light/12-hour dark schedules), with free access to rodent chow and water. After a Morris water maze test, mice were perfused with cold phosphate-buffered saline (PBS), brain tissues were dissected and kept frozen at −80° C. until further analysis. […] Isoorientin was dissolved in sterilized, ultrapure water, sonicated for 20 minutes at a concentration of 5 mg/ml and 2.5 mg/ml, and stored at 4° C. Isoorientin was administered by oral gavage. The required amount of solution was returned to room temperature before intragastric administration. […] The maze was composed of a circular pool (120 cm in diameter) filled with water (22±2° C.) to a height of 30 cm. […] Mice were given day of adaptive training followed by trials on six consecutive days. Each trial started by gently placing the mouse into the water with its head toward the pool wall of any of the three quadrants without the platform. If an animal found the platform within 60 seconds, it was left on the platform for 20 seconds. […] On the last day of Morris water maze test, the platform was removed and the number of times that the mice crossed the location of the original platform was quantified. Between trials, all mice were placed back in their home cages using a spoon-net to avoid direct contact with the experimenter. All trials were tracked automatically by a digital tracking system (Feidi Biological Technology) assessing path length, swimming speed, and latency to escape from the water.

O=c1cc(-c2ccc(O)c(O)c2)oc2cc(O)c([C@@H]3O[C@H](CO)[C@@H](O)[C@H](O)[C@H]3O)c(O)c12 [Compound 1, isoorientin]
platform cross frequencies (all doses, vs untreated APP/PS1): significantly increased
escape latency (intragastric, 60 days, all doses, vs untreated APP/PS1): significantly reduced the escape latency
cognitive deficit (oral, 25-mg/kg): significant alleviation of cognitive deficit
